# In patent US20220119446A1, “BIOMARKERS AND TREATMENT OF NEURONAL INJURY AND NEURODEGENERATION” (Board of Supervisons of Louisiana State University and …, priority 2018, published 2022):
# Entries after “also recorded” stand apart in the source; their conditions may differ.
# Columns and labels:
# Type in all cases: cell-based, human
# COX-2 promoter = COX-2 promoter luciferase reporter assay; conditions: ARPE-19 cells; 50 ng/ml Wnt5a or 20 ng/ml IL1-β
# Description: (§1) Except TOP/FOP flash, the Luciferase activity can be standardized using a construct expressing GFP constitutively under CMV virus promoter. To assess luciferase activity, cell lysates can be obtained using Passive Lysis Buffer (Promega, Madison, Wis.) and mixed with a luciferase assay reagent (Promegam Madison, Wis.). Chemiluminescence produced by luciferase and fluorescence from GFP can be detected using Appliscan 2.3. Data can be analyzed using SkanIt 2.3 (Thermo Fisher Scientific, Waltham, Mass.).
# A, Design of luciferase reporter assay performed with COX-2 promoter construct. UOS was induced by the addition of 10 ng/ml TNFα and 600 μM H2O2 in ARPE-19 cells. The concentrations of Wnt5a used was 50 ng/ml. Cells were co-transfected with the constructs driving the expression of luciferase and a plasmid that constitutively expressed green fluorescent protein for standardization. Luciferase activity is denoted in luciferase activity units (LUC) and standardized using GFP fluorescent (GFP). B, Wnt5a and IL-1β effect time course on COX-2 promoter activity. […] Luciferase activity (LUC) was measured in ARPE-19 cells in the presence of 50 ng/ml Wnt5a or 20 ng/ml IL1-β. […] Luciferase activity measured in cells incubated with 50 ng/ml Wnt5a in the presence or absence of 100 nM (+) and 200 nM (++) NPD1.
# NF-κB/p65 = NF-κB/p65 luciferase reporter assay in hpRPE cells; conditions: hpRPE under UOS in the presence of Wnt5a 50 ng/ml; NPD1 100 or 200 nM; Pitstop2 25 μM
# Procedure: We asked if Wnt5a activates inflammatory signaling to enhance apoptosis mediated by UOS by assessing COX-2 promoter activation (FIG. 10). […] To compare Wnt5a effects with other cytokines that enhance COX-2 expression, Interleukin-1β (IL-1β) activity was measured. […] To determine if Wnt5a activates NF-κB, hpRPE were transfected with a construct that encompassed three p65 high-affinity binding sites in tandem, driving the expression of the luciferase reporter gene (FIG. 1G). […] To assess whether or not FDZ5 and ROR2 were involved in NF-κB activation by Wnt5a, cells were co-transfected with siRNAs targeting the two receptors (FIG. 11).
# as §1
# Except TOP/FOP flash, the Luciferase activity was standardized using a construct expressing GFP constitutively under CMV virus promoter. To assess luciferase activity, cell lysates were obtained using Passive Lysis Buffer (Promega) and mixed with a luciferase assay reagent (Promega). Chemiluminescence produced by luciferase and fluorescence from GFP was detected using Appliscan 2.3. Data were analyzed using SkanIt 2.3 (Thermo Fisher Scientific).
# Wnt5a = assay: Western blot of secreted (sWnt5a) and cellular (cWnt5a) Wnt5a in RPE cells under UOS
# Procedure: To monitor transcription, translation, and secretion of Wnt5a, we performed western blot assays using cellular lysates and medium from hpRPE undergoing UOS+/−NPD1 at different time points. Medium was precipitated using Methanol/Chloroform to bring down all secreted Wnt5a.
# The pellet can be re-suspended and denatured in 100 μl of 2× Laemmli sample buffer (Bio-Rad Laboratories, Hercules, Calif.) at 95° C. for 5 min. MCAo brain tissue and cell samples can be homogenized using RIPA (Thermo Fisher Scientific, Waltham, Mass.) buffer supplemented with protease and phosphatase inhibitor cocktails (Millipore Sigma, Burlington, Mass.). In embodiments, the amount of 30 μg of total protein is loaded in NuPAGE® Novex® 4-12% Bis-Tris precast gels (Life Technologies Corporation, Carlsbad, Calif.) and run at constant 120V for about 1 hour and 20 min. Proteins can be transferred to μm Nitrocellulose membrane using Bio-Rad Trans-Blot® Turbo™ System (Bio-Rad Laboratories, Hercules, Calif.). ECL™ Plex Fluorescent Rainbow Markers (GE Healthcare, Chicago, Ill.) can be used as the ladder for protein's molecular weight. Membranes can be blocked using 5% non-fat dry milk (Bio-Rad Laboratories, Hercules, Calif.) in TBS with 1% Tween® 20 (TBST-10×) (Croda International, Snaith, United Kingdom) for 1 hour and incubated overnight with primary antibodies. Anti-mouse or anti-rabbit secondary antibodies conjugated with Cy3 or Cy5 can be used to visualize the protein of interest. Immunoblots can be documented using LAS 4000 imaging system (GE Healthcare Life Sciences, Marlborough, Mass.). A time course exposition can be produced in each case to prevent quantification of saturated images. In embodiments, densitometry data are obtained using ImageQuant™ TL software (GE Healthcare Life Sciences, Marlborough, Mass.).
# The pellet was re-suspended and denatured in 100 μl of 2× Laemmli sample buffer (Bio-Rad Laboratories) at 95° C. for 5 min. MCAo brain tissue and cell samples were homogenized using RIPA (Thermo Fisher Scientific) buffer supplemented with protease and phosphatase inhibitor cocktails (Sigma). The amount of 30 μg of total protein was loaded in NuPAGE® Novex® 4-12% Bis-Tris precast gels (Life Technologies Corporation) or Mini-PROTEAN TGX Stain free gels 4-15% and ran at constant 120V for 1 hour and 20 min or 250 V for 40 min respectively. Proteins were transferred to μm Nitrocellulose or LF-PVDF membrane using Bio-Rad Trans-Blot® Turbo™ System (Bio-Rad Laboratories). ECL™ Plex Fluorescent Rainbow Markers (GE Healthcare) were used as the ladder for protein's molecular weight. […] A time course exposition was produced in each case to prevent quantification of saturated images. […]
# Wnt5a/FZD5 = assay: Immunocytochemistry of Wnt5a/FZD5 colocalization and vesicles in hpRPE cells; conditions: for number of Wnt5a/FZD5 colocalized vesicles per field: hpRPE, UOS 1600 μM H2O2, 2 hours, +/− 50 ng/ml Wnt5a, no Pitstop2
# Procedure: To ascertain localization and interaction between FZD5 and Wnt5a we incubated hpRPE undergoing UOS with Wnt5a+/−NPD1 or other lipid mediators.
# (§2) Immunostaining can be performed in 8-well slide chambers and the Hoechst staining in 24-well plates. […] Briefly, cells can be fixed using 4% paraformaldehyde in PBS 1× for 20 min at room temperature or overnight at 4° C. After three washes with PBS, cells can be permeabilized using 0.1% Triton™ X-100 for five minutes and blocked using 10% normal serum and 1% BSA for one hour. […] Hoechst staining can be performed using same protocol of fixation. In one embodiment, permeabilization is done using methanol for 20 min at room temperature. […] Dying cells can be identified by size (0 to 50 pixels), intensity threshold, and circularity. The ratio of hyperpyknotic cells over the total can be calculated for nine randomly chosen fields per sample obtained from three independent wells per experiment. Each experiment can be repeated at least three times to confirm the findings.
# In an embodiment involving early stages of apoptosis, the total number of cells per field is assessed and counted to ensure unbiased observations. […] Settings can be adjusted in the conditions that show higher intensity and can be used throughout the remaining samples. In an embodiment, Pearson's colocalization coefficient (PCC) is obtained using FV1200 analysis software for every field in each experiment, and the mean and SEM are depicted in FIGS. 7-11.
# Immunostaining was performed in 8-well slide chambers and the Hoechst staining in 24 well plates. […] Briefly, cells were fixed using 4% paraformaldehyde in PBS 1× for 20 min at room temperature or overnight at 4° C. After three washes with PBS, cells were permeabilized using 0.1% Triton™ X-100 for five minutes and blocked using 10% normal serum and 1% BSA for one hour. […] Hoechst staining was performed using same protocol of fixation, but permeabilization was done using methanol for 20 min at room temperature. […] Dying cells were identified by size (0 to 50 pixels), intensity threshold and circularity. The ratio of hyperpyknotic cells over the total was calculated for nine randomly chosen fields per sample obtained from three independent wells per experiment. Each experiment was repeated at least three times to confirm the findings. In the experiments involving early stages of apoptosis, we assessed the total number of cells per field and counted them to ensure unbiased observations. […] Pearson's colocalization coefficient (PCC) was obtained using FV1200 analysis software for every field in each experiment, and the mean and SEM are depicted in Figures S1-S5. […] IMARIS software analysis was performed building a colocalization channel using the Costes thresholding, and the colocalized elements were analyzed using the spots function using the settings different spots sites, background subtraction and local contrast. The output obtained consisted on a collection of sizes (one per element in each picture) or the mean of the intensity in each spot.
# ARPE-19 cells and hpRPE = assay: Apoptosis by Hoechst staining in RPE cells under UOS
# Procedure: ARPE-19 cells, can be plated and grown in DMEM/F-12 containing 10% FBS and 1× penicillin/streptomycin at 37° C., 5% CO2, 99% relative humidity for 24 h. […] 15-LOX-1 deficient cells can be maintained in the same medium as ARPE-19 with the addition of 500 μg/mL Geneticin (Life Technologies Corporation, Carlsbad, Calif.). Transfection can be performed in all cases using Lipofectamine 2000 (Life Technologies Corporation, Carlsbad, Calif.) following the manufacturer's recommendations. […] Experiments with transfection efficiency that yielded less than 80% can be discarded. For siRNA, we used 6 μl of Lipofectamine 2000 per 50 pmol of siRNA per mL of incubation medium, and, for plasmids, we used 6 μl of Lipofectamine 2000 per 2 μg of plasmid per mL of incubation medium. Cells can be incubated for 5 hours at 37° C., 5% CO2 and 99% relative humidity. […] When siRNA/plasmid co-transfection is required, siRNA and plasmid-carrying transfection mixes can be prepared separately and added one after the other in the same well. Oxidative stress treatments can be performed using 600 (ARPE-19) or 1600 (hRPE) μM H2O2, along with 10 ng/mL TNFα, for the required time indicated in each experiment. The treatment we used employed the low serum (0.5% serum) without hFGF. Treatment to induce uncompensated oxidative stress (UOS) can be performed after 8 hours of low-serum medium incubation unless specifically noted. Wnt5a, Wnt3a or NPD1 can be added immediately before induction of UOS. In the secretion experiments, Pitstop 2 can be added to the medium 2 hours before harvesting.
# as §2
# ARPE-19 cells, were plated and grown in DMEM/F-12 containing 10% FBS and 1× penicillin/streptomycin at 37° C., 5% CO2, 99% relative humidity for 24 h. […] 15-LOX-1 deficient cells were maintained in the same medium as ARPE-19 with the addition of 500 μg/mL Geneticin (Life Technologies Corporation). Transfection was performed in all cases using Lipofectamine 2000 (Life Technologies Corporation) following the manufacturer's recommendations. […] Experiments with transfection efficiency that yielded less than 80% were discarded. For siRNA, we used 6 μl of Lipofectamine 2000 per 50 pmol of siRNA per mL of incubation medium, and, for plasmids, we used 6 μl of Lipofectamine 2000 per 2 μg of plasmid per mL of incubation medium. Cells were incubated for 5 hours at 37° C., 5% CO2 and 99% relative humidity. […] When siRNA/plasmid co-transfection was required, siRNA and plasmid-carrying transfection mixes were prepared separately and added one after the other in the same well. […] The treatment we used employed the low serum (0.5% serum) without hFGF. Treatment to induce uncompensated oxidative stress (UOS) was performed after 8 hours of low-serum medium incubation unless specifically noted. Wnt5a, Wnt3a or NPD1 was added immediately before induction of UOS.
compound,measurement,setting,value
"IL-1 β: cytokine that enhances COX-2 expression, used for comparison with Wnt5a",COX-2 promoter activation (luciferase),COX-2 promoter,growing staggered pattern of COX-2 promoter activation through at least 16 hours
O=C1NC(=NS(=O)(=O)c2cccc3ccccc23)S/C1=C\c1ccc(Br)cc1 [Pitstop2],NF-κB/p65 activation (luciferase),NF-κB/p65,decreases the activation of p65/NF-κB; also recorded: interferes with the activation of NF-κB/p65; also recorded: decreases the activation of p65/NFkB; also recorded: interferes with the activation of NFkB/p65
same,cellular Wnt5a (cWnt5a) abundance,Wnt5a; cells undergoing UOS+/−NPD1 and Pitstop2,did not modify cWnt5a abundance
same,secreted Wnt5a (sWnt5a) in medium,"Wnt5a; hpRPE cells under UOS, Pitstop2 added 2 hours before harvesting",reverted the effect of NPD1 on sWnt5a; also recorded: increase in secreted Wnt5a; also recorded: increase in sWnt5a
same,number of Wnt5a/FZD5 co-localized vesicles in the presence of Pitstop2,"Wnt5a/FZD5; 25 μM Pitstop2, control and UOS treated cells, rWnt5a added",prevented the increased in Wnt5a/FZD5 co-localized vesicles; also recorded: inhibition produced by Box5 was reverted
"CCC=CCC(O)C=CC=CC=CC(O)CC=CCC=CCCC(=O)O (centres unmarked) [10R, 17R diHDHA]",UOS-dependent NFkB activation and apoptosis (FIG. 18B legend),ARPE-19 cells and hpRPE,counteracted these effects
same,number of Wnt5a/FZD5 colocalized vesicles per field,Wnt5a/FZD5,decreased the amount of vesicles per field
same,number of Wnt5a/FZD5 colocalized vesicles per field,"Wnt5a/FZD5; listed as NPD1 stereoisomer, of 10-R, 17R configuration",showed the same effect as NPD1
CC/C=C\C/C=C\C[C@H](O)\C=C/C=C/C=C/[C@H](O)C/C=C\CCC(=O)O [Maresin-1],UOS-dependent NFkB activation and apoptosis (FIG. 18B legend),ARPE-19 cells and hpRPE,counteracted these effects
"CC/C=C\C[C@H](O)/C=C/C=C\C=C\C=C\[C@@H](O)[C@@H](O)C/C=C\CCC(=O)O [RvD1, 7S,8R,17S-trihydroxy-DHA]",UOS-dependent NFkB activation and apoptosis (FIG. 18B legend),ARPE-19 cells and hpRPE,counteracted these effects
"CC/C=C\C[C@H](O)[C@H](O)/C=C/C=C/C=C\C=C\[C@@H](O)C/C=C\CCC(=O)O [RvD2, 7S,16R,17S-trihydroxy-DHA]",UOS-dependent NFkB activation and apoptosis (FIG. 18B legend),ARPE-19 cells and hpRPE,counteracted these effects
